Laboratory results published in patent publication US9388136B2, “Tert-butyl N-[2-{4-[6-amino-5-(2,4-difluorobenzoyl)-2-oxopyridin-1(2H)-yl]-3,5-difluorophenyl}ethyl]-L-alaninate or a salt, hydrate or solvate thereof” (Chroma Therapeutics Ltd., priority 2012, dated 2016).
Where two headings read alike, the source gives them in different places.

Legend:
THP-1 cells = test: LPS-stimulation of THP-1 cells, TNF-α levels by ELISA; assay type: cell-based; conditions: LPS 1 μg/ml, 6 hrs, read-out: C—ester TNF-alpha inhibition (THP-1 cells), IC50
Procedure: THP-1 cells were plated in 100 μl at a density of 4×10^4 cells/well in V-bottomed 96 well tissue culture treated plates and incubated at 37° C. in 5% CO2 for 16 hrs. 2 hrs after the addition of the inhibitor in 100 μl of tissue culture media, the cells were stimulated with LPS (E coli strain 005:B5, Sigma) at a final concentration of 1 μg/ml and incubated at 37° C. in 5% CO2 for 6 hrs. TNF-α levels were measured from cell-free supernatants by sandwich ELISA (R&D Systems #QTA00B).

human whole blood = test: LPS-stimulation of human whole blood, TNF-α levels by ELISA; assay type: cell-based; conditions: LPS 100 ng/ml, 6 hrs, read-out: D—ester TNF-alpha inhibition (human whole blood), IC50
Procedure: Whole blood was taken by venous puncture using heparinised vacutainers (Becton Dickinson) and diluted in an equal volume of RPMI1640 tissue culture media (Sigma). 100 μl was plated in V-bottomed 96 well tissue culture treated plates. 2 hrs after the addition of the inhibitor in 100 μl of RPMI1640 media, the blood was stimulated with LPS (E coli strain 005:B5, Sigma) at a final concentration of 100 ng/ml and incubated at 37° C. in 5% CO2 for 6 hrs. TNF-α levels were measured from cell-free supernatants by sandwich ELISA (R&D Systems #QTA00B).

p38 MAP Kinase a = p38 MAP Kinase a (Homo sapiens (Human), UniProt Q16539); test: p38 MAP kinase enzyme assay (radiometric filter-binding); assay type: biochemical
Procedure: The ability of compounds to inhibit p38 MAP a Kinase activity was measured in an assay performed by Upstate (Dundee UK). In a final reaction volume of 25 μL, p38 MAP Kinase a (5-10 mU) is incubated with 25 mM Tris pH 7.5, 0.002 mMEGTA, 0.33 mg/mL myelin basic protein, 10 mM MgAcetate and [g-33p-ATP] (specific activity approx. 500 cpm/pmol, concentration as required). The reaction is initiated by the addition of the MgATP mix. After incubation for 40 minutes at room temperature, the reaction is stopped by the addition of 5 μL of a 3% phosphoric acid solution. 10 μL of the reaction is then spotted onto a P30 filtermat and washed three times for 5 minutes in 75 mM phosphoric acid and once in methanol prior to drying and scintillation counting.
Duplicate data points are generated from a 1/3 log dilution series of a stock solution in DMSO. Nine dilutions steps are made from a top concentration of 10 μM, and a ‘no compound’ blank is included. The standard radiometric filter-binding assay is performed at an ATP concentration at, or close to, the Km. Data from scintillation counts are collected and subjected to free-fit analysis by Prism software.

[1] = ester tested, read-out: A—ester enzyme assay (p38 kinase A (invitrogen)), IC50
[2] = corresponding acid (hydrolysis product of the named ester) tested, read-out: B—acid enzyme assay (p38 kinase A (invitrogen)), IC50

Chain of p38 MAP Kinase a (Q16539 whole entry): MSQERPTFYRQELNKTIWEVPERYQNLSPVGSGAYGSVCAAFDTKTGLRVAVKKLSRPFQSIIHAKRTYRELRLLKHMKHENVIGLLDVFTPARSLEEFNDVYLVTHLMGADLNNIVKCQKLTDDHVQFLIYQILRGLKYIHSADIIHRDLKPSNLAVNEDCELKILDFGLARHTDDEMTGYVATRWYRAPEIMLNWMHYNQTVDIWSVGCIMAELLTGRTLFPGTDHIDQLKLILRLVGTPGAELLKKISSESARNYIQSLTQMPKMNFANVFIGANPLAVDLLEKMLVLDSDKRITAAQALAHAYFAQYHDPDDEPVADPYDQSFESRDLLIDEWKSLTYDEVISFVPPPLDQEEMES

| SMILES | IC50 (THP-1 cells; Homo sapiens, THP-1) | IC50 (human whole blood; Homo sapiens) | IC50 (p38 MAP Kinase a; [1]) | IC50 (THP-1 cells) | IC50 (human whole blood) | IC50 (p38 MAP Kinase a; [2]) |
| --- | --- | --- | --- | --- | --- | --- |
| CC(C)C[C@H](NCCCOc1cc(F)c(-n2c(N)c(C(=O)c3ccc(F)cc3F)ccc2=O)c(F)c1)C(=O)OCCN1CCOCC1 [2-Morpholin-4-ylethyl N-(3-{4-[6-amino-5-(2,4-difluorobenzoyl)-2-oxopyridin-1(2H)-yl]-3,5-difluoro-phenoxy}propyl)-L-leucinate] | 0.4 nM | 935 nM | – | – | – | – |
| Nc1c(C(=O)c2ccc(F)cc2F)ccc(=O)n1-c1c(F)cc(CCN[C@@H](C(=O)OC2CCCC2)c2ccccc2)cc1F [Cyclopentyl (2R)-[(2-{4-[6-amino-5-(2,4-difluoro-benzoyl)-2-oxopyridin-1(2H)-yl]-3,5-difluorophenyl}ethyl)amino] (phenyl)acetate] | – | – | 47 nM | 21 nM | 4110 nM | – |
| Nc1c(C(=O)c2ccc(F)cc2F)ccc(=O)n1-c1c(F)cc(OCCCN[C@@H](C(=O)OC2CCCC2)c2ccccc2)cc1F [Cyclopentyl (2R)-[(3-{4-[6-amino-5-(2,4-difluorobenzoyl)-2-oxopyridin-1(2H)-yl]-3,5-difluorophenoxy}propyl)amino] (phenyl)acetate] | 6 nM | – | – | – | – | – |
| NCC[C@H](NCCCOc1cc(F)c(-n2c(N)c(C(=O)c3ccc(F)cc3F)ccc2=O)c(F)c1)C(=O)OC1CCCC1 [Cyclopentyl (2S)-4-amino-2-[(3-{4-[6-amino-5-(2,4-difluoro-benzoyl)-2-oxopyridin-1(2H)-yl]-3,5-difluoro-phenoxy}propyl)amino]butanoate] | 22 nM | 479 nM | 1 nM | – | – | 5 nM |
| Nc1c(C(=O)c2ccc(F)cc2F)ccc(=O)n1-c1c(F)cc(CCN[C@H](C(=O)OC2CCCC2)c2ccccc2)cc1F [Cyclopentyl (2S)-[(2-{4-[6-amino-5-(2,4-difluorobenzoyl)-2-oxopyridin-1(2H)-yl]-3,5-difluorophenyl}ethyl)amino] (phenyl)acetate] | 0.5 nM | 148 nM | 65 nM | – | – | 1 nM |
| CC(C)C[C@H](NCCCOc1cc(F)c(-n2c(N)c(C(=O)c3ccc(F)cc3F)ccc2=O)c(F)c1)C(=O)OC1CCCC1 [Cyclopentyl (S)-2-(3-{4-[6-Amino-5-(2,4-difluorobenzoyl)-2-oxo-2H-pyridin-1-yl]-3,5-difluoro-phenoxy}propyl-amino)-4-methyl pentanoate] | 10.7 nM | 594 nM | – | – | – | – |
| Nc1c(C(=O)c2ccc(F)cc2F)ccc(=O)n1-c1c(F)cc(OCCCN[C@H](C(=O)OC2CCCC2)c2ccccc2)cc1F [Cyclopentyl (S)-(3-{4-[6-Amino-5-(2,4-difluorobenzoyl)-2-oxo-2H-pyridin-1-yl]-3,5-difluoro-phenoxy}propylamino) phenyl acetate] | 5.3 nM | 508 nM | – | – | – | – |
| Nc1c(C(=O)c2ccc(F)cc2)ccc(=O)n1-c1c(F)cc(OCCCN[C@H](C(=O)OC2CCCC2)c2ccccc2)cc1F [Cyclopentyl (S)-(3-{4-[6-Amino-5-(4-fluorobenzoyl)-2-oxo-2H-pyridin-1-yl]-3,5-difluoro-phenoxy}propylamino) phenylacetate] | 38 nM | – | – | – | – | – |
| CC(C)(C)OC[C@H](NCCc1cc(F)c(-n2c(N)c(C(=O)c3ccc(F)cc3F)ccc2=O)c(F)c1)C(=O)OC1CCCC1 [Cyclopentyl N-(2-{4-[6-amino-5-(2,4-difluoro-benzoyl)-2-oxopyridin-1(2H)-yl]-3,5-difluorophenyl}ethyl)-O-tert-butyl-L-serinate] | 5.7 nM | 1300 nM | 57 nM | – | – | 1 nM |
| CC(C)C[C@H](NCCc1cc(F)c(-n2c(N)c(C(=O)c3ccc(F)cc3)ccc2=O)c(F)c1)C(=O)OC1CCCC1 [Cyclopentyl N-(2-{4-[6-amino-5-(4-fluoro-benzoyl)-2-oxopyridin-1(2H)-yl]-3,5-difluorophenyl}ethyl)-L-leucinate] | 0.9 nM | 190 nM | 12 nM | – | – | 1 nM |
| CC(C)C[C@H](NCCCCCOc1cc(F)c(-n2c(N)c(C(=O)c3ccc(F)cc3F)ccc2=O)c(F)c1)C(=O)OC1CCCC1 [Cyclopentyl N-(5-{4-[6-amino-5-(2,4-difluorobenzoyl)-2-oxopyridin-1(2H)-yl]-3,5 - difluorophenoxy}pentyl)-L-leucinate] | 4.2 nM | 179 nM | 81 nM | – | – | 2 nM |
| CC(C)[C@H](NCCc1cc(F)c(-n2c(N)c(C(=O)c3ccc(F)cc3F)ccc2=O)c(F)c1)C(=O)OC1CCCC1 [Cyclopentyl N-[2-(4-{6-amino-5-[(2,4-difluoro-phenyl)carbonyl]-2-oxopyridin-1(2H)-yl}-3,5 difluorophenyl)ethyl]-L-valinate] | 8.4 nM | 5180 nM | 22 nM | – | – | – |
| C[C@@H](O)[C@H](NCCc1ccc(-n2c(N)c(C(=O)c3ccc(F)cc3F)ccc2=O)cc1)C(=O)OC1CCCC1 [Cyclopentyl N-[2-(4-{6-amino-5-[(2,4-difluoro-phenyl)carbonyl]-2-oxopyridin-1(2H)-yl}phenyl)ethyl]-L-threoninate] | 1.8 nM | 1200 nM | 68 nM | – | – | 56 nM |

The next lines start with the values.

| IC50 (THP-1 cells; Homo sapiens, THP-1) | IC50 (human whole blood; Homo sapiens) | IC50 (p38 MAP Kinase a; [1]) | IC50 (THP-1 cells) | IC50 (human whole blood) | IC50 (p38 MAP Kinase a; [2]) | SMILES |
| --- | --- | --- | --- | --- | --- | --- |
| 8.6 nM | – | 28 nM | – | – | – | CCOC(=O)[C@H](CC(C)C)NCCCOc1cc(F)c(-n2c(N)c(C(=O)c3ccc(F)cc3)ccc2=O)c(F)c1 [Ethyl N-(3-{4-[6-amino-5-(4-fluoro-benzoyl)-2-oxopyridin-1(2H)-yl]-3,5-difluorophenoxy}propyl)-L-leucinate] |
| 76.1 nM | 4270 nM | – | – | – | – | CC(C)C[C@H](NCCCOc1cc(F)c(-n2c(N)c(C(=O)c3ccc(F)cc3F)ccc2=O)c(F)c1)C(=O)OC(C)(C)C [tert-Butyl (S)-2-(3-{4-[6-Amino-5-(2,4-difluorobenzoyl)-2-oxo-2H-pyridin-1-yl]-3,5-difluoro-phenoxy}propyl-amino)-4-methyl pentanoate] |
| 29 nM | 1250 nM | 73 nM | – | – | 2 nM | CC(C)C[C@H](NCCCCCOc1cc(F)c(-n2c(N)c(C(=O)c3ccc(F)cc3F)ccc2=O)c(F)c1)C(=O)OC(C)(C)C [tert-Butyl N-(5-{4-[6-amino-5-(2,4-difluoro-benzoyl)-2-oxopyridin-1(2H)-yl]-3,5-difluorophenoxy}pentyl)-L-leucinate] |
| 2.4 nM | 638 nM | 330 nM | – | – | 58 nM | CC(C)C[C@H](NCCc1ccc(-n2c(N)c(C(=O)c3ccc(F)cc3F)ccc2=O)cc1)C(=O)OC(C)(C)C [tert-Butyl N-[2-(4-{6-amino-5-[(2,4-difluoro-phenyl)carbonyl]-2-oxopyridin-1(2H)-yl}phenyl)ethyl]-L-leucinate] |
| 2 nM | 779 nM | – | – | – | – | CC(C)(C)OC(=O)[C@@H](NCCc1cc(F)c(-n2c(N)c(C(=O)c3ccc(F)cc3F)ccc2=O)c(F)c1)c1ccccc1 [tert-butyl (2S)-[(2-{4-[6-amino-5-(2,4-difluoro-benzoyl)-2-oxopyridin-1(2H)-yl]-3,5-difluorophenyl}ethyl)amino] (phenyl)acetate] |
| 83 nM | – | 72 nM | – | – | 1 nM | CC(C)(C)OC[C@H](NCCc1cc(F)c(-n2c(N)c(C(=O)c3ccc(F)cc3F)ccc2=O)c(F)c1)C(=O)OC(C)(C)C [tert-butyl N-(2-{4-[6-amino-5-(2,4-difluoro-benzoyl)-2-oxopyridin-1(2H)-yl]-3,5-difluorophenyl}ethyl)-O-tert-butyl-L-serinate] |
